The conditions of data set [1]: compared with C16-C17 isomers / pladienolides, cited from earlier work.
The subject of a further data set is DNAJB1. The experiment in a line: qPCR splicing analysis, DNAJB1 intron retention. Type of data set: cell-based, human. The following applies: for DNAJB1 intron retention: HCT116, 24 h, 100, 250, 500 nM, compared to 1. As for the experimental part:
(§1) HCT116 tumor cells were treated with each analogue at 20 times the G150 value (Table 12) for 4 hours and then cellular RNA was isolated and purified for qPCR. Primers were designed to evaluate intron retention or exon skipping, direct responses to splice modulator treatment. Genes evaluated included those involved in splicing regulation (SF3A1, SF3A3, SF3B1, SF3B2), apoptosis (MCL-1L), protein folding (DNAJB1), and cell cycle regulation (AURKA, PLK-1) relative to the unspliced control GAPDH. For alternative splicing regulator (SF2), primers were designed to evaluate gene expression, which changes in response splice modulator treatment for SF2 relative to the unspliced control GAPDH. (−) denotes untreated cells.
as §1, with “analogues” for “each analogue”, “100 nM (light grey), 250 nM (grey), or 500 nM (black)” for “20 times the G150 value (Table 12)”, “24 h” for “4 hours”, “(MCL-1L), and” for “(MCL-1L),”, “(DNAJB1),” for “(DNAJB1), and cell cycle regulation (AURKA, PLK-1)”, “(—)” for “(−)”
Next, we turned our efforts to explore the ability of these analogues to modulate splicing. […] We treated cells for 4 h so that we could evaluate early changes in splicing activity, and then cellular RNA was isolated and purified for analyses by qPCR (FIG. 14). Most importantly, none of the concentrations tested led to significant changes in cell viability, ensuring that changes in gene expression were not due to cell death.
For these studies, we evaluated the expression of genes involved in splicing regulation (SF3A1, SF3A3, SF3B1, SF3B2), apoptosis (MCL-1L), protein folding (DNAJB1), and cell cycle regulation (AURKA, PLK-1) relative to the unspliced control GAPDH. Primers were designed to evaluate intron retention or exon skipping, direct responses to splice modulator treatment. The master splicing regulator alternative splicing factor (SF2) was also evaluated, with the primers for this gene designed to evaluate overall gene expression, which changes in response to splice modulator treatment.
From this 4 h study (FIG. 14), a small set of analogs (1, 1b, 1g, 1d, 1e, 1i and 1j) were selected to evaluate if effects on splicing when presented for a longer 24 h period. […] Using identical procedures as that used for 4 h, HCT116 cells were treated with three concentrations (100 nM, 250 nM and 500 nM) of each analog for 24 h. Multiple concentrations were used as a means to check further validate the use of the GI50 concentration in our prior study (FIG. 14). As before, none of the concentrations tested led to significant changes in cell viability over the 24-hour time window, ensuring that changes in gene expression were not due to cell death.
Cells were treated with 1 or 1a-1j in media (McCoy's 5a (Life Technologies) supplemented with 10% FBS, 2 mM L-glutamine, and 100 U mL^−1 of penicillin and 100 μg mL^−1 of streptomycin 0.5% DMSO) for 4 h or 24 h. Untreated cells were considered were used as negative control. Total RNA was isolated using mirVana miRNA isolation kit (Life Technologies). […]

For data set [2] the following is noted: in vivo; cited from earlier work.
For the next data set, the system named is AURKA. The experiment in a line: qPCR splicing analysis, AURKA exon skipping / expression. Type of data set: cell-based, human. The following applies: HCT116, 24 h, 100, 250, 500 nM. As for the experimental part:
as §1
Next, we turned our efforts to explore the ability of these analogues to modulate splicing. […] We treated cells for 4 h so that we could evaluate early changes in splicing activity, and then cellular RNA was isolated and purified for analyses by qPCR (FIG. 14). […]
For these studies, we evaluated the expression of genes involved in splicing regulation (SF3A1, SF3A3, SF3B1, SF3B2), apoptosis (MCL-1L), protein folding (DNAJB1), and cell cycle regulation (AURKA, PLK-1) relative to the unspliced control GAPDH. […] The master splicing regulator alternative splicing factor (SF2) was also evaluated, with the primers for this gene designed to evaluate overall gene expression, which changes in response to splice modulator treatment. […]
Cells were treated with 1 or 1a-1j in media (McCoy's 5a (Life Technologies) supplemented with 10% FBS, 2 mM L-glutamine, and 100 U mL^−1 of penicillin and 100 μg mL^−1 of streptomycin 0.5% DMSO) for 4 h or 24 h. […] The amount of unspliced RNA for different genes was determined using Power SYBR Green PCR master mix (Applied Biosystems) by qPCR using specific primers for each gene. qPCR using 2.5 μM of each primer was performed on 5 ng of the obtained cDNA. qPCR conditions were as follows: 95° C. for 10 min for one cycle, then 95° C. for 10 min for one cycle, then 95° C. for 30 s, 55° C. for 60 s, 72° C. for 60 s, for 40 cycles using the MXPro. […]
A general note: In qPCR the cycle at which signal appears reflects the starting amount.

The test system of a further data set is SF3A3. The experiment in a line: qPCR splicing analysis, SF3A3 intron retention. Type of data set: cell-based, human. The following applies: HCT116, 24 h, 100, 250, 500 nM. As for the experimental part:
as §1
HCT116 tumor cells were treated with analogues at 100 nM (light grey), 250 nM (grey), or 500 nM (black) for 24 h and then cellular RNA was isolated and purified for qPCR. […] Genes evaluated included those involved in splicing regulation (SF3A1, SF3A3, SF3B1, SF3B2), apoptosis (MCL-1L), and protein folding (DNAJB1), relative to the unspliced control GAPDH. […]
For these studies, we evaluated the expression of genes involved in splicing regulation (SF3A1, SF3A3, SF3B1, SF3B2), apoptosis (MCL-1L), protein folding (DNAJB1), and cell cycle regulation (AURKA, PLK-1) relative to the unspliced control GAPDH. […]

This is an account of results in patent US12172988B2, “Anticancer and antifungal splice modulators” (priority 2021, dated 2024).

Read-outs that look alike come from different tables or passages of the source.

In the case of `CC[C@H](OC)[C@@H](C)[C@H]1O[C@@H]1[C@@H](O)[C@H](C)/C=C/C=C(\C)[C@H]1OC(=O)C[C@H](O)CC[C@@](C)(O)[C@@H](OC(C)=O)/C=C/[C@@H]1C` [Analog 1d, 17S-FD-895], the “stability (words)” value is “increased stability” in data set [1] and “metabolically-improved” in data set [1] (listed as 17S-FD-895). Moreover, in the data set on DNAJB1, the DNAJB1 intron retention result is given as “decreased level of intron retention”. In addition, the MTD in data set [2] was 4 mg/kg.
Regarding `CC[C@H](OC)[C@@H](C)[C@H]1O[C@@H]1[C@@H](O)[C@H](C)/C=C/C=C(\C)[C@H]1OC(=O)C[C@@H](O)CC[C@@](C)(O)[C@@H](OC(C)=O)/C=C/[C@@H]1C` [Analog 1g, 3S,17S-FD-895], the AURKA expression result with AURKA is “altered the expression of AURKA comparable to 1”. In addition, the “DNAJB1 intron 2 retention (level of intron retention)” value in the data set with DNAJB1 (HCT116, 4 h, 20 times GI50, qPCR relative to GAPDH) was “highest level of intron retention”. Moreover, the DNAJB1 intron retention result with DNAJB1 is listed as “loss in intron retention”. For the same molecule, the SF3A3 intron retention result with SF3A3 is recorded as “concentration dependent increase intron retention”.
Take `CC[C@@H](OC)[C@H](C)[C@H]1O[C@@H]1[C@@H](O)[C@H](C)/C=C/C=C(\C)[C@H]1OC(=O)C[C@H](O)CC[C@@](C)(O)[C@@H](OC(C)=O)/C=C/[C@@H]1C` [Analog 1j, 17S,20S,21R-FD-895]: the AURKA expression result in the data set with AURKA is listed as “reducing the expression of AURKA at 500 nM”.
